How the values were obtained:
[1] = biological target: T1, hCA II (Homo sapiens, UniProt P00918); assay: hCA II inhibition, esterase assay with 4-nitrophenylacetate as substrate; format: biochemical; settings: 4-nitrophenylacetate substrate, mean from at least three determinations, enzyme purified from human erythrocytes
T1 construct: we have purified CA I and II (hCA I and hCA II) from human erythrocytes; from tissue; host or cells: human erythrocytes (fresh human blood)
Description: (§1) Erythrocytes were purified from fresh human blood obtained from the Blood Centre of the Research Hospital at Atatürk University. The blood samples were centrifuged at 1500 rpm for 15 min and the plasma and buffy coat were removed. The red cells were isolated and washed twice with 0.9% NaCl, and hemolysed with 1.5 volumes of ice-cold water. The ghost and intact cells were removed by centrifugation at 20 000 rpm for 30 min at 4 °C. The pH of the hemolysate was adjusted to 8.7 with solid Tris[18]. Firstly, benzoyl chloride and stirred for four hours at room temperature in CH2Cl2 cellulose. After the spacer arm cellulose added as a benzyl group and finally diazotized sulfanilamide clamped to the para position of benzyl group as ligand. The hemolysate was applied to the prepared cellulose-benzyl-sulfanylamide affinity column equilibrated with 25 mM Tris-HCl/0.1 M Na2SO4 (pH 8.7). The affinity gel was washed with 25 mM Tris-HCl/22 mM Na2SO4 (pH 8.7). The human carbonic anhydrase (hCA I and hCA II) isozymes were eluted with 1 M NaCl/25 mM Na2HPO4 (pH 6.3) and 0.1 M CH3COONa/0.5 M NaClO4 (pH 5.6), respectively. All procedures were performed at 4 °C[16].
(§2) Enzyme activity was determined spectrophotometrically by following the change in absorbance at 348 nm of 4-nitrophenylacetate to 4-nitrophenylate over a period of 3 min at 25 °C[19–21]. The enzymatic reaction contained 1.4 mL 0.05 M Tris-SO4 buffer (pH 7.4), 1 mL 3 mM 4-nitrophenylacetate, 0.5 mL H2O and 0.1 mL enzyme solution, in a total volume of 3.0 mL[22]. Inhibitory effects of compounds 4–12 were compared with phenolic compounds 13–15. Different inhibitor concentrations were used and all compounds were tested in triplicate at each concentration used. Control cuvette activity was acknowledged as 100% in the absence of inhibitor. An Activity% – [Inhibitor] graph was drawn for each inhibitor[22–24]. The curve-fitting algorithm allowed to obtain the IC50 values, working at the lowest concentration of substrate of 0.15 mM, from which KI values were calculated[25]^,[26]. The catalytic activity of these enzymes was calculated from Lineweaver–Burk plots, as reported earlier, and represent the mean from at least three different determinations. The CA I and II isoenzymes used here were purified from human blood as described earlier.

[2] = biological target: T2, hCA I (Homo sapiens, UniProt P00915); assay: hCA I inhibition, esterase assay with 4-nitrophenylacetate as substrate; format: biochemical; settings: 4-nitrophenylacetate substrate, mean from at least three determinations, enzyme purified from human erythrocytes
T2 construct: we have purified CA I and II (hCA I and hCA II) from human erythrocytes; from tissue; host or cells: human erythrocytes (fresh human blood)
T2 sequence (P00915 whole entry): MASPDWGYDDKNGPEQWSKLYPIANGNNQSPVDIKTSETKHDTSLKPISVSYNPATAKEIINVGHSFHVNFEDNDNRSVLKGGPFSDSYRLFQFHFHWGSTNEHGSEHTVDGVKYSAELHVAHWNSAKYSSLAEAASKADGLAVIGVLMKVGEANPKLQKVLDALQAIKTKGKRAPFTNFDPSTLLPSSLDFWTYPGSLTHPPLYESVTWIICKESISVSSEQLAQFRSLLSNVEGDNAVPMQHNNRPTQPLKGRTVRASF
Description: as §1, §2

Row | Ki [1] | Ki [2] | SMILES
1 | 236 nM | 104 nM | Cn1c(N)c(N)c(=O)n(C)c1=O [5,6-Diamino 1,3-Dimethyluracil (12), 5,6-Diamino 1,3-Dimethyluracil]
2 | 172 nM | 85 nM | Cn1c(N)cc(=O)n(C)c1=O [6-Amino 1,3-Dimethyluracil (11), 6-Amino 1,3-Dimethyluracil]
3 | 1430 nM | 459 nM | O=C(O)c1c[nH]c(=O)[nH]c1=O [Isoorotic acid (10), isoorotic acid]
4 | 1680 nM | 732 nM | O=C(O)c1cc(=O)[nH]c(=O)[nH]1 [Orotic acid (9), Orotic acid]
